According to patent publication US20220227720A1, “DHODH INHIBITORS AND THEIR USE AS ANTIVIRAL AGENTS” (priority 2019, published 2022):
Values after ≈ are worked out from the molar mass of the structure shown. Like-named read-outs stand apart in the source and are kept apart here.

Assays:
[1] = tested on: RVFV; assay: microbe, parasite or virus in culture; type: cell-based; details: Rift Valley fever virus, SW13, read-out: IC50 RVFV
[2] = Cytotoxicity assay (CellTiter-Blue), Vero E6 cells; details: for CC50 at 4 days: monkey (simian), Vero E6 cells, CC50, Simian Vero E6 cells, value repeated under each virus; for CC50: cell line not given
[3] = tested on: VEEV; assay: microbe, parasite or virus in culture; type: cell-based; details: Venezuelan equine encephalitis virus, SW13, read-out: IC50 VEEV
[4] = tested on: TAHV; assay: microbe, parasite or virus in culture; type: cell-based; details: Tahyna virus, Vero C1008, read-out: IC50 TAHV
[5] = tested on: RVFV; assay: microbe, parasite or virus in culture; type: cell-based; details: Rift Valley fever virus, HEK293, read-out: IC50 RVFV
[6] = tested on: VEEV; assay: microbe, parasite or virus in culture; type: cell-based; details: Venezuelan equine encephalitis virus, HEK293, read-out: IC50 VEEV
[7] = tested on: YFV; assay: microbe, parasite or virus in culture; type: cell-based; details: Yellow fever virus, Vero C1008, read-out: IC50 YFV
[8] = tested on: TOSV; assay: microbe, parasite or virus in culture; type: cell-based, Toscana virus
[9] = tested on: HAZV; assay: microbe, parasite or virus in culture; type: cell-based; details: Hazara virus, Vero C1008, read-out: IC50 HAZV
[10] = tested on: TBEV; assay: microbe, parasite or virus in culture; type: cell-based; details: Tick-borne encephalitis virus, SW13, read-out: IC50 TBEV
[11] = tested on: RVFV; assay: microbe, parasite or virus in culture; type: cell-based; details: Rift Valley fever virus, Vero C1008, read-out: IC50 RVFV
[12] = tested on: VEEV; assay: microbe, parasite or virus in culture; type: cell-based; details: Venezuelan equine encephalitis virus, Vero C1008, read-out: IC50 VEEV
[13] = Cytotoxicity assay, SW13 cells; details: human
[14] = Cytotoxicity assay, BHK-21 cells; details: hamster, BHK-21 cells, CC50, Hamster BHK-21 cells; value repeated under each virus
[15] = tested on: Vero E6 cells; assay: Cytotoxicity assay (CellTiter-Blue), Vero E6 cells; details: Simian Vero E6 cells; value repeated under each virus
[16] = Cytotoxicity assay, L929 cells; details: mouse
[17] = tested on: TBEV; assay: microbe, parasite or virus in culture; type: cell-based; details: Tick-borne encephalitis virus, Vero C1008, read-out: IC50 TBEV
[18] = tested on: VEEV; assay: microbe, parasite or virus in culture; type: cell-based; details: Venezuelan equine encephalitis virus, L929, in Mus musculus, read-out: IC50 VEEV
[19] = tested on: TBEV; assay: microbe, parasite or virus in culture; type: cell-based; details: Tick-borne encephalitis virus, L929, in Mus musculus, read-out: IC50 TBEV
[20] = Cytotoxicity assay (CellTiter-Blue), HEK-293 cells; details: human
[21] = tested on: RVFV; assay: microbe, parasite or virus in culture; type: cell-based; details: Rift Valley fever virus, BHK-21, in Mesocricetus auratus, read-out: IC50 RVFV
[22] = tested on: DENV; assay: Virus yield reduction assay, DENV in Vero E6 cells; type: cell-based; details: Dengue virus, Vero C1008; Simian Vero E6 cells; FLAVI virus family
[23] = tested on: VEEV; assay: microbe, parasite or virus in culture; type: cell-based; details: Venezuelan equine encephalitis virus, BHK-21, in Mesocricetus auratus, read-out: IC50 VEEV
[24] = Hydrolysis study in mouse liver extract; details: FIG. 1, FIG. 2
[25] = Plasma stability; details: 1 μm, 37° C., mouse plasma diluted with 1 volume of PBS pH 7.4
[26] = Hepatic microsome stability; details: 1 μm, 37° C., 0.5 mg/mL microsomes of mouse liver; cofactor: NADPH
[27] = tested on: RVFV; assay: microbe, parasite or virus in culture; type: cell-based; details: Rift Valley fever virus, L929, in Mus musculus, read-out: IC50 RVFV
[28] = Log D (PBS pH 7.4/octanol)
[29] = tested on: YFV; assay: microbe, parasite or virus in culture; type: cell-based; details: Yellow fever virus, BHK-21, in Mesocricetus auratus, read-out: IC50 YFV
[30] = Solubility in PBS pH 7.4; details: PBS pH 7.4, 20 °C, pH 7.4, aqueous buffer
[31] = tested on: TBEV; assay: microbe, parasite or virus in culture; type: cell-based; details: Tick-borne encephalitis virus, HEK293, read-out: IC50 TBEV
[32] = tested on: ZIKV; assay: Virus yield reduction assay, ZIKV in Vero E6 cells; type: cell-based; details: Zika virus, Vero C1008; Simian Vero E6 cells; FLAVI virus family
[33] = Metabolic stability in S9 fraction
[34] = Toscana virus, Vero C1008, read-out: IC50 (TOSV)

Compound: CC(C)c1ccccc1SCC(=O)Nc1ccccc1C(=O)O [Example 2]
- IC50 [1]: 500 nM
- CC50 at 4 days [2]: 110000 ± 10000 nM
- IC50 [3]: 1500 nM
- IC50 [4]: 270 nM
- IC50 [5]: 400 nM
- IC50 [6]: 450 nM
- IC50 [7]: 700 ± 200 nM
- IC50 [8, 34]: 550 ± 50 nM
- IC50 [9]: 700 ± 200 nM
- IC50 [10]: 930 nM
- IC50 [11]: ~2000 nM

Compound: COc1ccc(Nc2ccc(Oc3ccccc3)cc2)c(C(=O)O)c1 [Example 4]
- IC50 [12]: 60 nM
- CC50 [13]: 75000 nM
- IC50 [1]: 130 nM
- CC50 [14]: 125000 nM
- CC50 at 4 days [2]: 71000 ± 1000 nM
- CC50 [15]: 37900 nM
- IC50 [3]: 220 nM
- IC50 [4]: 100 nM
- CC50 [16]: 70000 nM
- IC50 [17]: 120 nM
- IC50 [18]: 220 nM
- IC50 [7]: 220 nM
- IC50 [19]: 160 nM
- IC50 [8, 34]: 80 nM
- CC50 at 3 days [20]: 125000 nM
- IC50 [21]: 850 nM
- IC50 [22]: 180 nM
- IC50 [9]: 120 nM
- IC50 [10]: 380 nM
- IC50 [23]: 1300 nM
- IC50 [11]: 20 nM

Compound: O=C(O)c1ccccc1Nc1ccc(Cc2ccccc2)cc1 [Example 5]
- CC50 at 4 days [2]: 44000 nM
- CC50 [15]: 77500 nM
- IC50 [4]: 450 nM
- CC50 [16]: 60000 nM
- IC50 [18]: > 1000 nM
- IC50 [8, 34]: 325 nM
- IC50 [9]: 360 nM

Compound: CCC(=O)Nc1ccc(-c2ccc(-c3ccccc3)cc2)cc1C(=O)O [Example 6]
- IC50 [12]: 120 nM
- CC50 at 4 days [2]: 10000 nM
- CC50 [16]: 15000 nM
- IC50 [6]: 19 nM
- IC50 [17]: 120 ± 10 nM
- IC50 [18]: 9 nM
- IC50 [19]: 9 nM
- Hydrolysis in mouse liver extract (amide bond stability) [24]: more stable
- IC50 [8, 34]: 120 nM
- Plasma stability [% remaining at 2 h] [25]: 94 ± 6 % remaining at 2 h
- IC50 [21]: > 200 nM
- IC50 [9]: 120 nM
- Hepatic microsome stability [% remaining at 1 h] [26]: 49 ± 0 % remaining at 1 h
- IC50 [27]: 3 nM
- logD [28]: 3.07 ± 0.05
- IC50 [29]: > 200 nM
- IC50 [11]: 140 nM
- solubility [30]: 61 ± 17 µM (≈ 21.1 µg/mL)

Compound: CCC(=O)Nc1ccc(-c2ccc(-c3ccccc3)c(F)c2)cc1C(=O)O [Example 7]
- IC50 [12]: 120 nM
- CC50 at 4 days [2]: 15000 nM
- IC50 [4]: 120 nM
- CC50 [16]: 9000 nM
- IC50 [6]: 14 nM
- IC50 [17]: 13 nM
- IC50 [18]: 7 nM
- IC50 [19]: 4 nM
- IC50 [8, 34]: 110 nM
- IC50 [9]: 70 nM
- IC50 [27]: 5.5 nM
- IC50 [11]: 120 nM

Compound: CCCCCc1ccc(C#Cc2ccc(NC(=O)CC)c(C(=O)O)c2)cc1 [Example 8, 5-((4-pentylphenyl)ethynyl)-2-propionamidobenzoic acid]
- IC50 [12]: 7 nM
- CC50 [13]: 20000 nM
- IC50 [1]: 8 nM
- CC50 [14]: 7500 nM
- CC50 at 4 days [2]: 8000 nM
- IC50 [3]: 13 nM
- IC50 [4]: 10 nM
- CC50 [16]: 5000 nM
- IC50 [5]: 1.5 nM
- IC50 [6]: 1.5 nM
- IC50 [17]: 70 nM
- IC50 [18]: 3 nM
- IC50 [31]: 3.1 nM
- IC50 [32]: 9 nM
- IC50 [7]: 6 nM
- IC50 [19]: 1.5 nM
- IC50 [8, 34]: 10 nM
- Plasma stability [% remaining at 2 h] [25]: 114 ± 5 % remaining at 2 h
- IC50 [21]: 16 nM
- IC50 [22]: 5 nM
- IC50 [9]: 8 nM
- IC50 [10]: 13 nM
- Hepatic microsome stability [% remaining at 1 h] [26]: 70 ± 3 % remaining at 1 h
- IC50 [27]: 2 nM
- logD [28]: 4.6 ± 0.3
- IC50 [29]: 22 nM
- IC50 [11]: 6 nM
- solubility [30]: 18 ± 6 µM (≈ 6.54 µg/mL)

Compound: CCC(C)c1ccccc1OCCOC(=O)Nc1ccccc1C(=O)O (stereo not drawn) [Example 12]
- CC50 [2]: 51000 nM
- IC50 [8, 34]: 190 nM
- Metabolic stability in a S9 fraction (rat) [33]: high metabolic stability

Compound: CCC(C)(C)c1ccccc1OCCOC(=O)Nc1ccccc1C(=O)O [Example 13]
- CC50 [2]: > 25000 nM
- IC50 [8, 34]: 128 nM
- Metabolic stability in a S9 fraction (rat) [33]: high metabolic stability

Compound: O=C(O)c1ccccc1NC(=O)n1ccc2ccccc21 [Example 14]
- CC50 [2]: 40000 nM
- IC50 [8, 34]: 9000 nM

Compound: CCC(C)c1ccccc1OCCCC(=O)Nc1cnccc1C(=O)O (stereo not drawn) [Example 15]
- CC50 [2]: > 25000 nM
- IC50 [8, 34]: ~500 nM

Compound: CCC(C)c1ccccc1OCC(=O)Nc1ccc2c(c1C(=O)O)OC(F)(F)O2 (stereo not drawn) [Example 16]
- CC50 [2]: 37000 nM
- IC50 [8, 34]: 4000 nM

Compound: O=C(COc1ccccc1Cc1ccccc1)Nc1ccc2c(c1C(=O)O)OC(F)(F)O2 [Example 17]
- CC50 [2]: 32000 nM
- IC50 [8, 34]: 6000 nM

Compound: CCc1nc2cc(-c3ccc(-c4ccccc4)cc3)cc(C(=O)O)c2[nH]1 [Example 19]
- CC50 [2]: 8000 nM
- IC50 [8, 34]: 118 nM

Compound: CCC(C)c1ccccc1OCc1nc2ccc(C)cc2c(=O)o1 (stereo not drawn) [Example 20]
- CC50 [2]: 75000 nM
- IC50 [8, 34]: 600 nM

Compound: Cc1ccc2nc(COc3ccc(Cl)cc3Cc3ccccc3)oc(=O)c2c1 [Example 21]
- CC50 [2]: > 100000 nM
- IC50 [8, 34]: 800 nM

Compound: CCC(C)c1ccccc1OCCCc1nc2ccc(F)cc2c(=O)o1 (stereo not drawn) [Example 22]
- CC50 [2]: 17000 nM
- IC50 [8, 34]: 300 nM

Compound: CS(N)(=O)=O [methyl sulfonamide]
- IC50 ([8]; read-out: IC50 (TOSV)): 1500 nM
